Patent US8987258B2 (priority 2008, dated 2015)

Biological target: T1, SIRT1 (Homo sapiens, UniProt Q96EB6)
T1 sequence (Q96EB6 1-747): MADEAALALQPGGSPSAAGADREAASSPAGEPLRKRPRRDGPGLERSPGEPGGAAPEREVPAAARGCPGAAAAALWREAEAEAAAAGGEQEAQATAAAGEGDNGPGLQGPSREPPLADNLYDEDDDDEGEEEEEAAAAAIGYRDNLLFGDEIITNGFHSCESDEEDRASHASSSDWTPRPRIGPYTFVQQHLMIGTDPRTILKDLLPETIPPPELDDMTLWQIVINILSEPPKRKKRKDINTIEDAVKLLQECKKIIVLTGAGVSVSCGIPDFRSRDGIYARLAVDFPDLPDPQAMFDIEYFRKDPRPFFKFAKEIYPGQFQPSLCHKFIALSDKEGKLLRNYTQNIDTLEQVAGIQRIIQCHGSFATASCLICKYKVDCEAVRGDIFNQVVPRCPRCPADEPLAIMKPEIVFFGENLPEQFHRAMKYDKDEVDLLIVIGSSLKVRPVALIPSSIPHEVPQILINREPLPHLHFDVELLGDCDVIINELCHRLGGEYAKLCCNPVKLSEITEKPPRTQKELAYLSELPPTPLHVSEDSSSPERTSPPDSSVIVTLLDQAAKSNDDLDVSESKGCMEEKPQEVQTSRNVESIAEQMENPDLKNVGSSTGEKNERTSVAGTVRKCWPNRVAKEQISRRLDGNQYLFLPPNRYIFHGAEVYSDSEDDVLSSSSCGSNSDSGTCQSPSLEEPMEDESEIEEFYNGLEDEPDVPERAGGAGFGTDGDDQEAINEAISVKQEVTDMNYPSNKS
Assay: Mass spectrometry based SIRT1 deacetylase activation assay
Assay type: biochemical
Conditions: for EC1.5 μM: 0.5 μM peptide substrate, 120 μM βNAD+, 10 nM SIRT1, 25 min, 25° C.; for Emax: 25 min, mass spectrometry assay, read-out: % Fold Act. (percent maximum fold activation)
Description: A mass spectrometry based assay was used to identify modulators of SIRT1 activity. The mass spectrometry based assay utilizes a peptide having 20 amino acid residues as follows: Ac-EE-K(biotin)-GQSTSSHSK(Ac)NleSTEG-K(5TMR)-EE-NH2 (SEQ ID NO: 1) wherein K(Ac) is an acetylated lysine residue and Nle is a norleucine. The peptide is labeled with the fluorophore 5TMR (excitation 540 nm/emission 580 nm) at the C-terminus. The sequence of the peptide substrate is based on p53 with several modifications. In addition, the methionine residue naturally present in the sequence was replaced with the norleucine because the methionine may be susceptible to oxidation during synthesis and purification.
The mass spectrometry assay is conducted as follows: 0.5 μM peptide substrate and 120 μM βNAD^+ is incubated with 10 nM SIRT1 for 25 minutes at 25° C. in a reaction buffer (50 mM Tris-acetate pH 8, 137 mM NaCl, 2.7 mM KCl, 1 mM MgCl2, 5 mM DTT, 0.05% BSA). Test compounds may be added to the reaction as described above. […] After the 25 minute incubation with SIRT1, 10 μL of 10% formic acid is added to stop the reaction. Reactions are sealed and frozen for later mass spec analysis. Determination of the mass of the substrate peptide allows for precise determination of the degree of acetylation (i.e. starting material) as compared to deacetylated peptide (product).
A control for inhibition of sirtuin activity is conducted by adding 1 μL of 500 mM nicotinamide as a negative control at the start of the reaction (e.g., permits determination of maximum sirtuin inhibition). A control for activation of sirtuin activity is conducted using 10 nM of sirtuin protein, with 1 μL of DMSO in place of compound, to determine the amount of deacetylation of the substrate at a given timepoint within the linear range of the assay. This timepoint is the same as that used for test compounds and, within the linear range, the endpoint represents a change in velocity.
For the above assay, SIRT1 protein was expressed and purified as follows. […] The protein was expressed by induction with 1 mM IPTG as an N-terminal His-tag fusion protein at 18° C. overnight and harvested at 30,000×g. Cells were lysed with lysozyme in lysis buffer (50 mM Tris-HCl, 2 mM Tris[2-carboxyethyl]phosphine (TCEP), 10 μM ZnCl2, 200 mM NaCl) and further treated with sonication for 10 min for complete lysis. The protein was purified over a Ni-NTA column (Amersham) and fractions containing pure protein were pooled, concentrated and run over a sizing column (Sephadex S200 26/60 global). The peak containing soluble protein was collected and run on an Ion-exchange column (MonoQ). Gradient elution (200 mM-500 mM NaCl) yielded pure protein. This protein was concentrated and dialyzed against dialysis buffer (20 mM Tris-HCl, 2 mM TCEP) overnight. The protein was aliquoted and frozen at −80° C. until further use.

Row | Compound | EC1.5 μM | Emax [%]
1 | O=C(Nc1cccc2c(=O)cc(-c3ccccc3)oc12)c1cscn1 [Compound 200] | C (EC1.5>25 μM) | < 200
2 | O=C(Nc1cccc2c(=O)cc(-c3ccccc3)oc12)c1cnccn1 [Compound 201] | C (EC1.5>25 μM) | < 200
3 | O=C(Nc1cccc2c(=O)cc(-c3cccc(OC(F)(F)F)c3)oc12)c1cscn1 [Compound 202] | C (EC1.5>25 μM) | < 200
4 | O=C(Nc1cccc2c(=O)cc(-c3cccc(OC(F)(F)F)c3)oc12)c1cnccn1 [Compound 203] | B (EC1.5 1-25 μM) | < 200
5 | O=C(Nc1cccc2c(=O)cc(-c3cccc(C(F)(F)F)c3)oc12)c1cscn1 [Compound 204, N-(4-oxo-2-(3-(trifluoromethyl)phenyl)-4H-chromen-8-yl)thiazole-4-carboxamide] | B (EC1.5 1-25 μM) | < 200
6 | O=C(Nc1cccc2c(=O)cc(-c3cccc(C(F)(F)F)c3)oc12)c1cnccn1 [Compound 205] | C (EC1.5>25 μM) | < 200
7 | O=C(Nc1nccs1)c1cccc2c(=O)cc(-c3cccc(C(F)(F)F)c3)oc12 [Compound 206] | C (EC1.5>25 μM) | < 200
8 | O=C(Nc1ccccn1)c1cccc2c(=O)cc(-c3cccc(C(F)(F)F)c3)oc12 [Compound 207] | C (EC1.5>25 μM) | < 200
9 | O=C(Nc1nccs1)c1cccc2c(=O)cc(-c3cccc(N4CCOCC4)c3)oc12 [Compound 208] | C (EC1.5>25 μM) | < 200
10 | O=C(Nc1ccccn1)c1cccc2c(=O)cc(-c3cccc(N4CCOCC4)c3)oc12 [Compound 209] | C (EC1.5>25 μM) | < 200
11 | O=C(Nc1nccs1)c1cccc2c(=O)cc(-c3cccc(OC(F)(F)F)c3)oc12 [Compound 210] | C (EC1.5>25 μM) | < 200
12 | O=C(Nc1ccccn1)c1cccc2c(=O)cc(-c3cccc(OC(F)(F)F)c3)oc12 [Compound 211] | C (EC1.5>25 μM) | < 200
13 | O=C(Nc1cccc2c(=O)cc(-c3cccc(N4CCOCC4)c3)oc12)c1cscn1 [Compound 212] | B (EC1.5 1-25 μM) | > 200
14 | O=C(Nc1cccc2c(=O)cc(-c3cccc(N4CCOCC4)c3)oc12)c1ccccn1 [Compound 213] | C (EC1.5>25 μM) | < 200
15 | O=C(Nc1cccc2c(=O)cc(-c3cccc(N4CCOCC4)c3)oc12)c1cnccn1 [Compound 214] | B (EC1.5 1-25 μM) | < 200
16 | O=C(Nc1cccc2c(=O)cc(-c3cccnc3)oc12)c1cscn1 [Compound 215, N-(4-oxo-2-(pyridin-3-yl)-4H-chromen-8-yl)thiazole-4-carboxamide] | C (EC1.5>25 μM) | < 200
17 | O=C(Nc1cccc2c(=O)cc(-c3cccnc3)oc12)c1ccccn1 [Compound 216] | C (EC1.5>25 μM) | < 200
18 | O=C(Nc1cccc2c(=O)cc(-c3cccnc3)oc12)c1cnccn1 [Compound 217] | C (EC1.5>25 μM) | < 200
19 | CS(=O)(=O)c1cccc(-c2cc(=O)c3cccc(NC(=O)c4ccccn4)c3o2)c1 [Compound 218] | B (EC1.5 1-25 μM) | < 200
20 | CS(=O)(=O)c1cccc(-c2cc(=O)c3cccc(NC(=O)c4cnccn4)c3o2)c1 [Compound 219] | C (EC1.5>25 μM) | < 200
21 | CS(=O)(=O)c1cccc(-c2cc(=O)c3cccc(C(=O)Nc4nccs4)c3o2)c1 [Compound 220] | C (EC1.5>25 μM) | < 200

Row | Compound | EC1.5 μM | Emax [%]
22 | CS(=O)(=O)c1cccc(-c2cc(=O)c3cccc(C(=O)Nc4ccccn4)c3o2)c1 [Compound 221] | C (EC1.5>25 μM) | < 200
23 | CS(=O)(=O)c1cccc(-c2cc(=O)c3cccc(NC(=O)c4cscn4)c3o2)c1 [Compound 222] | C (EC1.5>25 μM) | < 200
24 | Cc1cnc(NC(=O)c2cccc3c(=O)cc(-c4ccc(Br)cc4)oc23)s1 [Compound 223] |  | < 200
25 | O=C(Nc1cccnc1)c1cccc2c(=O)cc(-c3cccc(C(F)(F)F)c3)oc12 [Compound 224, 4-oxo-N-(pyridin-3-yl)-2-(3-(trifluoromethyl)phenyl)-4H-chromene-8-carboxamide] | C (EC1.5>25 μM) | < 200
26 | O=C(Nc1cccc2c(=O)cc(-c3cccc(C(F)(F)F)c3)oc12)c1ccccn1 [Compound 225] | C (EC1.5>25 μM) | < 200
27 | O=C(Nc1cccc2c(=O)cc(-c3cccc(C(F)(F)F)c3)oc12)c1cccnc1 [Compound 226] | C (EC1.5>25 μM) | < 200
28 | O=C(Nc1cccc2c(=O)cc(-c3ccccc3C(F)(F)F)oc12)c1cscn1 [Compound 227, N-(4-oxo-2-(2-(trifluoromethyl)phenyl)-4H-chromen-8-yl)thiazole-4-carboxamide] | A (EC1-5<1.0) | > 200
29 | O=C(Nc1cccc2c(=O)cc(-c3ccc(C(F)(F)F)cc3)oc12)c1cscn1 [Compound 228] | C (EC1.5>25 μM) | < 200
30 | O=C(Nc1cccc2c(=O)cc(-c3ccc(N4CCOCC4)cc3)oc12)c1cscn1 [Compound 229] | C (EC1.5>25 μM) | < 200
31 | O=C(Nc1cccc2c(=O)cc(-c3cccc(Br)c3)oc12)c1cscn1 [Compound 230] |  | < 200
32 | O=C(Nc1cccc2c(=O)cc(-c3ccccc3Br)oc12)c1cscn1 [Compound 231] |  | > 200
33 | O=C(Nc1cccc2c(=O)cc(-c3ccc(Br)cc3)oc12)c1cscn1 [Compound 232] |  | < 200
34 | O=C(Nc1cccc2c(=O)cc(-c3ccc(OC(F)(F)F)cc3)oc12)c1cnccn1 [Compound 233] | C (EC1.5>25 μM) | < 200
35 | O=C(Nc1cccc2c(=O)cc(-c3ccccc3OC(F)(F)F)oc12)c1cnccn1 [Compound 234] | A (EC1-5<1.0) | > 200
36 | Cc1cnc(NC(=O)c2cccc3c(=O)cc(-c4cccc(C(F)(F)F)c4)oc23)s1 [Compound 235] | C (EC1.5>25 μM) | < 200
37 | Cc1cnc(NC(=O)c2cccc3c(=O)cc(-c4ccccc4Br)oc23)s1 [Compound 236] |  | < 200
38 | Cc1cnc(NC(=O)c2cccc3c(=O)cc(-c4cccc(Br)c4)oc23)s1 [Compound 237] |  | < 200
39 | Cc1cnc(NC(=O)c2cccc3c(=O)cc(-c4ccccn4)oc23)s1 [Compound 238] | C (EC1.5>25 μM) | < 200
40 | Cc1cnc(NC(=O)c2cccc3c(=O)cc(-c4cccnc4)oc23)s1 [Compound 239] | C (EC1.5>25 μM) | < 200
41 | O=C(Nc1cccc2c(=O)cc(-c3ccccc3N3CCOCC3)oc12)c1cscn1 [Compound 240] | B (EC1.5 1-25 μM) | > 200
42 | CS(=O)(=O)c1ccccc1-c1cc(=O)c2cccc(NC(=O)c3ccccn3)c2o1 [Compound 241] | B (EC1.5 1-25 μM) | > 200
